Results taken from article PMC4965013, “Open Source Drug Discovery with the Malaria Box Compound Collection for Neglected Diseases and Beyond” (PLoS Pathogens, 2016).

Assays:
[1] = system: P. falciparum; experiment: EC50 listed in S2 Table Metabolomics (used to set the concentration tested); format: cell-based; conditions: Plasmodium falciparum; EC50 used for Factor_XEC50 in metabolomics; read-out: EC50_nM
[2] = system: P. falciparum 3D7 trophozoites; experiment: Metabolomic fingerprint profiling LC-MS; format: cell-based, Plasmodium falciparum; parameters: UDP-D-glucose / ADP-D-glucose: unit not given here; conditions: for Acetyllysine / N-acetyl-L-ornithine / N-carbamoyl-L-aspartate / NADPH / dAMP / dCMP / dTDP / dTMP / dTTP / dihydroorotate / orotate / DLH / DLS/SDL/SID / PD / PEE / PVNF / 3-phosphoglycerate / ADP-D-glucose / ATP / CDP / D-sedoheptulose-1/7-phosphate / FAD / GMP / NAD+ / NADP+ / Octoluse Bisphosphate / Pyroglutamic acid / UDP-D-glucose / UDP-D-glucuronate / UDP-N-acetyl-glucosamine / UDP / UMP / UTP / a-ketoglutarate / citrate/isocitrate / cytidine / dATP / dGMP/AMP / fumarate / glucose-1/6-phosphate / glycerate / guanine / guanosine / hypoxanthine / indole / inosine / nicotinate / ornithine / phosphoenolpyruvate / pyruvate / ribose-phosphate / sarcosine/alanine / sn-glycerol-3-phosphate / succinate/methylmalonic acid / uridine / xanthosine: S2 Table Metabolomics; for Acetyllysine: metabolite Acetyllysine; for N-acetyl-L-ornithine: metabolite N-acetyl-L-ornithine; for N-carbamoyl-L-aspartate: metabolite N-carbamoyl-L-aspartate; for NADPH: metabolite NADPH; for dAMP: metabolite dAMP; for dCMP: metabolite dCMP; for dTDP: metabolite dTDP; for dTMP: metabolite dTMP; for dTTP: metabolite dTTP; for dihydroorotate: metabolite dihydroorotate; for orotate: metabolite orotate; for DLH: peptide DLH; for DLS/SDL/SID: peptide DLS/SDL/SID; for PD: peptide PD; for PEE: peptide PEE; for PVNF: peptide PVNF; for 3-phosphoglycerate: metabolite 3-phosphoglycerate; for ADP-D-glucose: metabolite ADP-D-glucose; for ATP: metabolite ATP; for CDP: metabolite CDP; for CDP / D-sedoheptulose-1/7-phosphate / GMP / Octoluse Bisphosphate / UDP / UMP / UTP / citrate/isocitrate / dGMP/AMP / fumarate / glucose-1/6-phosphate / glycerate / guanine / guanosine / inosine / pyruvate / sarcosine/alanine / succinate/methylmalonic acid / uridine / xanthosine: change in metabolite level after compound treatment; for D-sedoheptulose-1/7-phosphate: metabolite D-sedoheptulose-1/7-phosphate; for FAD: metabolite FAD; for GMP: metabolite GMP; for NAD+: metabolite NAD+; for NADP+: metabolite NADP+; for Octoluse Bisphosphate: metabolite Octoluse Bisphosphate; for Pyroglutamic acid: metabolite Pyroglutamic acid; for UDP-D-glucose: metabolite UDP-D-glucose; for UDP-D-glucuronate: metabolite UDP-D-glucuronate; for UDP-N-acetyl-glucosamine: metabolite UDP-N-acetyl-glucosamine; for UDP: metabolite UDP; for UMP: metabolite UMP; for UTP: metabolite UTP; for a-ketoglutarate: metabolite a-ketoglutarate; for citrate/isocitrate: metabolite citrate/isocitrate; for cytidine: metabolite cytidine; for dATP: metabolite dATP; for dGMP/AMP: metabolite dGMP/AMP; for fumarate: metabolite fumarate; for glucose-1/6-phosphate: metabolite glucose-1/6-phosphate; for glycerate: metabolite glycerate; for guanine: metabolite guanine; for guanosine: metabolite guanosine; for hypoxanthine: metabolite hypoxanthine; for indole: metabolite indole; for inosine: metabolite inosine; for 2_3-Diphosphoglyceric acid / 4-phosphopantothenate / 6-phospho-D-gluconate / FMN / IMP / Pyrophosphate / Sedoheptoluse bisphosphate / cyclic-AMP / glutathione disulfide / lactate / myo-inositol: metabolite level change after treatment; for nicotinate: metabolite nicotinate; for ornithine: metabolite ornithine; for phosphoenolpyruvate: metabolite phosphoenolpyruvate; for pyruvate: metabolite pyruvate; for ribose-phosphate: metabolite ribose-phosphate; for sarcosine/alanine: metabolite sarcosine/alanine; for sn-glycerol-3-phosphate: metabolite sn-glycerol-3-phosphate; for succinate/methylmalonic acid: metabolite succinate/methylmalonic acid; for uridine: metabolite uridine; for xanthosine: metabolite xanthosine

In the case of `COc1ccc(-c2cc3c(SCC(=O)Nc4cc(C(F)(F)F)ccc4Cl)nccn3n2)cc1` [MMV396679], the EC50 [1] is reported as 89.9 nM, the Acetyllysine [2] is reported as -0.1115 and the N-acetyl-L-ornithine [2] is reported as -0.02651. It also gave a N-carbamoyl-L-aspartate [2] of 3.992, an NADPH [2] of 0.255 and a dAMP [2] of 0.01076. It also gave a dCMP [2] of -0.01731, a dTDP [2] of -0.9721 and a dTMP [2] of -0.9985. The dTTP [2] was -1.02, the dihydroorotate [2] was 4.797 and the orotate [2] was 0.864. It also gave a DLH [2] of -0.2125, a DLS/SDL/SID [2] of -0.04913 and a PD [2] of -0.04215. For the same compound, the PEE [2] was -0.3501, the PVNF [2] was -0.2936 and the 3-phosphoglycerate [2] was -0.0577. The ADP-D-glucose [2] was -0.06603, the ATP [2] was 0.1822 and the CDP [2] was -0.644. For the same compound, the D-sedoheptulose-1/7-phosphate [2] was 0.2024, the FAD [2] was 0.03763 and the GMP [2] was 0.3849. The “NAD+” value [2] was -0.01439, the “NADP+” value [2] was -0.06317 and the “Octoluse Bisphosphate” value [2] was -0.02018. For the same compound, the Pyroglutamic acid [2] was 0.2933, the UDP-D-glucose [2] was -0.1121 and the UDP-D-glucuronate [2] was -0.02141. For the same compound, the UDP-N-acetyl-glucosamine [2] was -0.3213, the UDP [2] was -1.37 and the UMP [2] was -0.7971. For the same compound, the UTP [2] was -1.261, the a-ketoglutarate [2] was 0.1314 and the citrate/isocitrate [2] was 0.05797. It also gave a cytidine [2] of 0.1643, a dATP [2] of 0.3792 and a dGMP/AMP [2] of -0.06069. It also gave a fumarate [2] of -0.2305, a glucose-1/6-phosphate [2] of 0.5016 and a glycerate [2] of 0.4143. For the same compound, the guanine [2] was 0.4991, the guanosine [2] was 0.9003 and the hypoxanthine [2] was 0.3227. For the same compound, the indole [2] was 0.2561, the inosine [2] was 0.1928 and the 2_3-Diphosphoglyceric acid [2] was 0.1312. It also gave a 4-phosphopantothenate [2] of -0.2367, a 6-phospho-D-gluconate [2] of 0.186 and an FMN [2] of -0.2039. It also gave an IMP [2] of -0.06535, a Pyrophosphate [2] of 0.04157 and a Sedoheptoluse bisphosphate [2] of -0.03524. For the same compound, the cyclic-AMP [2] was -0.06553, the glutathione disulfide [2] was 0.06998 and the lactate [2] was 0.2306. For the same compound, the myo-inositol [2] was 0.2632, the nicotinate [2] was 0.2615 and the ornithine [2] was 0.183. It also gave a phosphoenolpyruvate [2] of -0.02867, a pyruvate [2] of -0.158 and a ribose-phosphate [2] of -0.4444. It also gave a sarcosine/alanine [2] of 0.1483, a sn-glycerol-3-phosphate [2] of -0.1937 and a succinate/methylmalonic acid [2] of -0.8703. For the same compound, the uridine [2] was -0.4231 and the xanthosine [2] was 0.3074.
For `CCCCCC(=O)N1c2ccccc2N=C2CC(c3ccc(OC)c(OC)c3)CC(O)=C2C1c1ccc(C(F)(F)F)cc1` (stereo not drawn) [MMV085583], the EC50 [1] was 237 nM, the Acetyllysine [2] was -3.233 and the N-acetyl-L-ornithine [2] was -2.906. The N-carbamoyl-L-aspartate [2] was -0.5597, the NADPH [2] was 1.284 and the dAMP [2] was 0.2596. It also gave a dCMP [2] of -0.4552, a dTDP [2] of -0.3582 and a dTMP [2] of -0.9265. For the same compound, the dTTP [2] was 0.1067, the dihydroorotate [2] was -0.6697 and the orotate [2] was -1.058. For the same compound, the DLH [2] was -2.5, the DLS/SDL/SID [2] was -2.559 and the PD [2] was -2.735. For the same compound, the PEE [2] was -2.9857, the PVNF [2] was -3.329 and the 3-phosphoglycerate [2] was 0.3606. For the same compound, the ADP-D-glucose [2] was -0.0158, the ATP [2] was -0.07202 and the CDP [2] was -0.3911. For the same compound, the D-sedoheptulose-1/7-phosphate [2] was -0.5433, the FAD [2] was -0.3185 and the GMP [2] was -0.4734. The “NAD+” value [2] was -0.2717, the “NADP+” value [2] was 0.1968 and the “Octoluse Bisphosphate” value [2] was -0.2833. It also gave a Pyroglutamic acid [2] of -0.1555, a UDP-D-glucose [2] of -0.1587 and a UDP-D-glucuronate [2] of -0.1055. The UDP-N-acetyl-glucosamine [2] was -0.2414, the UDP [2] was -0.8399 and the UMP [2] was -0.6631. It also gave a UTP [2] of -0.1073, an a-ketoglutarate [2] of -0.8202 and a citrate/isocitrate [2] of -0.2512. For the same compound, the cytidine [2] was -0.09635, the dATP [2] was 0.2253 and the dGMP/AMP [2] was -0.1442. The fumarate [2] was -0.4715, the glucose-1/6-phosphate [2] was -0.3133 and the glycerate [2] was -0.7263. For the same compound, the guanine [2] was -0.4303, the guanosine [2] was -0.4531 and the hypoxanthine [2] was -0.4709. The indole [2] was -0.4645, the inosine [2] was -0.4523 and the 2_3-Diphosphoglyceric acid [2] was 0.1524. For the same compound, the 4-phosphopantothenate [2] was -0.4091, the 6-phospho-D-gluconate [2] was -0.01182 and the FMN [2] was -0.2086. For the same compound, the IMP [2] was -0.3529, the Pyrophosphate [2] was 0.1499 and the Sedoheptoluse bisphosphate [2] was 0.0221. The cyclic-AMP [2] was -0.3292, the glutathione disulfide [2] was -0.6201 and the lactate [2] was -0.8724. It also gave a myo-inositol [2] of -1.425, a nicotinate [2] of 0.07742 and an ornithine [2] of 0.02649. The phosphoenolpyruvate [2] was 0.334, the pyruvate [2] was -0.3941 and the ribose-phosphate [2] was -0.07903. For the same compound, the sarcosine/alanine [2] was -0.9167, the sn-glycerol-3-phosphate [2] was 0.1681 and the succinate/methylmalonic acid [2] was -0.405. The uridine [2] was -0.7297 and the xanthosine [2] was 0.125.
`CCCN(CCC)CC(O)COc1ccccc1C(=O)Nc1ccccc1` (stereo not drawn) [MMV006455] showed an EC50 [1] of 196 nM, an Acetyllysine [2] of -1.84 and a N-acetyl-L-ornithine [2] of -1.412. It also gave a N-carbamoyl-L-aspartate [2] of -1.358, an NADPH [2] of 1.245 and a dAMP [2] of 1.1553. The dCMP [2] was -0.6709, the dTDP [2] was 0.7128 and the dTMP [2] was 1.286. The dTTP [2] was -0.4381, the dihydroorotate [2] was -1.042 and the orotate [2] was -1.326. For the same compound, the DLH [2] was -3.333, the DLS/SDL/SID [2] was -1.242 and the PD [2] was -1.741. For the same compound, the PEE [2] was -6.259, the PVNF [2] was -1.503 and the 3-phosphoglycerate [2] was 0.4787. The ADP-D-glucose [2] was 0.3541, the ATP [2] was 0.3304 and the CDP [2] was 0.5091. It also gave a D-sedoheptulose-1/7-phosphate [2] of 0.2206, an FAD [2] of 0.7675 and a GMP [2] of -0.1404. The “NAD+” value [2] was 0.6496, the “NADP+” value [2] was 1.103 and the “Octoluse Bisphosphate” value [2] was 0.1196. The Pyroglutamic acid [2] was -0.5503, the UDP-D-glucose [2] was 0.16 and the UDP-D-glucuronate [2] was -0.0808. It also gave a UDP-N-acetyl-glucosamine [2] of 0.351, a UDP [2] of 0.8505 and a UMP [2] of -0.5223. The UTP [2] was -1.889, the a-ketoglutarate [2] was -0.6936 and the citrate/isocitrate [2] was -1.1034. It also gave a cytidine [2] of 1.29, a dATP [2] of -1.015 and a dGMP/AMP [2] of 0.4722. It also gave a fumarate [2] of -1.1903, a glucose-1/6-phosphate [2] of 2.348 and a glycerate [2] of 0.5071. The guanine [2] was 0.09569, the guanosine [2] was -0.9351 and the hypoxanthine [2] was 0.1926. The indole [2] was -0.2645, the inosine [2] was 0.3717 and the 2_3-Diphosphoglyceric acid [2] was 0.5499. The 4-phosphopantothenate [2] was 0.373, the 6-phospho-D-gluconate [2] was 0.458 and the FMN [2] was 0.8429. For the same compound, the IMP [2] was 0.8206, the Pyrophosphate [2] was -0.6263 and the Sedoheptoluse bisphosphate [2] was 0.2316. The cyclic-AMP [2] was 0.1549, the glutathione disulfide [2] was 0.487 and the lactate [2] was 1.338. The myo-inositol [2] was 3.347, the nicotinate [2] was 0.09812 and the ornithine [2] was -0.2237. It also gave a phosphoenolpyruvate [2] of 0.01215, a pyruvate [2] of 0.467 and a ribose-phosphate [2] of -0.04809. For the same compound, the sarcosine/alanine [2] was -0.7349, the sn-glycerol-3-phosphate [2] was -0.3619 and the succinate/methylmalonic acid [2] was -0.7549. For the same compound, the uridine [2] was 0.2304 and the xanthosine [2] was -2.143.
